Experimental data reported in patent EP1900728A1 (Genecare Research Institute Co., Ltd, priority 2005, dated 2006).

These compounds were tested against T1, IκBα ubiquitinating enzyme (SCF complex: ROC1, Cullin1, Skp1, His-TrCP1; with E1, UbcH5b) (Homo sapiens, UniProt P62877+P63208+Q13616+Q9Y297) (assay: Measurement of ubiquitinating enzyme activity (IκBα ubiquitination, time-resolved fluorescence with Eu(K)-labeled ubiquitin and XL665-labeled anti-GST antibody)). Details: enzyme activity inhibition test, method (1), Table 5; read-out: EVALUATION.
T1 construct: His (polyhistidine); made in house; host or cells: insect cells (baculovirus) for the SCF complex and His-E1; E. coli for His-UBCH5b
Assay type: biochemical
Experimental: Method 1: Measurement of ubiquitinating enzyme activity
A recombinant vector His-UBCH5b containing a polyhistidine tag (His) and UBCH5b was prepared. E. coli was transformed with the vector, the protein was expressed, and affinity purification was carried out using Ni-NTA agarose (Qiagen). Four types of recombinant baculoviruses (ROC1, Cullin1, Skp1, and His-TrCP1) were prepared for the SCF complex protein, insect cells were infected in quadruplicate for expression, and affinity purification was carried out using Ni-NTA agarose. Recombinant baculoviruses His-IKKβ, His-E1 were prepared. The insect cells were infected with each of those for expression, and affinity purification was carried out using Ni-NTA agarose. A recombinant vector GST-IκBα was prepared by fusing glutathione-S-transferase tag (GST) and IκBα, E. coli was transformed with the vector for the protein expression, and affinity purification was carried out using glutathione sepharose (Amersham Biosciences). Genetic transformants were prepared by PCR amplification followed by recombination, all of which were based on published human-derived sequences.
Phosphorylation reaction of IκBα was performed by incubating the above-mentioned assay buffer (50 mM Tris-HCl (pH7.4), 2 mM ATP, 5 mM MgCl2, 0.5 mM DTT, 0.1% BSA) containing IκBα and IKKβ at room temperature for 1 hour. Ubiquitination reactions were carried out as follows. Compound samples at various concentrations, ubiquitin, Eu (K)-labeled ubiquitin, E1, UbcH5b, and SCF complex were added to phosphorylated IκBα, and then this was incubated at room temperature for 30 minutes. The reaction was terminated by adding EDTA, the above-mentioned revelation buffer (100 mM phosphate buffer (pH7.0), 0.5 M KF, 0.1% BSA) containing XL665-labeled anti-GST antibody was added and this was left to stand at room temperature for 2 hours. Measurements were made using ARVO-HTS (Perkin Elmer). The ratio of fluorescence intensities at 620 nm and 665 nm (Em 665 nm/Em 620 nm x 10,000) with excitation light at 337 nm was measured.
The ubiquitination level without the addition of a compound sample was used as the control value, and the level in the absence of SCF complex was used as the blank value for the assays. Inhibitory activities of the compounds were indicated as % inhibition = 100 - (value with a compound sample added - blank value) / (control value - blank value) x 100. IC50 was indicated as the concentration of the compound showing 50% inhibition. Eu (K)-labeled ubiquitin, XL665-labeled anti-GST antibody, and XL665-labeled anti-His antibody were purchased from CIS bio international. Costar solid black plates (96 wells) were used for the assays.

T1 sequence (Q9Y297 whole entry): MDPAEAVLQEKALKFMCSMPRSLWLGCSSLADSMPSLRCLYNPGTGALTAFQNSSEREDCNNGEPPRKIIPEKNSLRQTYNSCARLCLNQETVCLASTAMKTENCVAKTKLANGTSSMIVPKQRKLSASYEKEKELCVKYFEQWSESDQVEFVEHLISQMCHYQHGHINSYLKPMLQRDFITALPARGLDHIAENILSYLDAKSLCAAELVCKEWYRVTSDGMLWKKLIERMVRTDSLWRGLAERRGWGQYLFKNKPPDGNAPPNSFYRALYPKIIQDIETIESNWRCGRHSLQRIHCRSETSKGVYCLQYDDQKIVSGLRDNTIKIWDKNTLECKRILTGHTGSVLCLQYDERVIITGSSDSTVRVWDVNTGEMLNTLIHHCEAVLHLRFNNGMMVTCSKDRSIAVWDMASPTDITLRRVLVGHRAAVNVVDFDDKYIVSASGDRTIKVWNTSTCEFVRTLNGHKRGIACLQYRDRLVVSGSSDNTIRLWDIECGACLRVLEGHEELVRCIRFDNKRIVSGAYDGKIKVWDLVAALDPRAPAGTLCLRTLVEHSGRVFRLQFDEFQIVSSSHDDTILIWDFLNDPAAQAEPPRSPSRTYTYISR
T1 sequence (Q13616 whole entry): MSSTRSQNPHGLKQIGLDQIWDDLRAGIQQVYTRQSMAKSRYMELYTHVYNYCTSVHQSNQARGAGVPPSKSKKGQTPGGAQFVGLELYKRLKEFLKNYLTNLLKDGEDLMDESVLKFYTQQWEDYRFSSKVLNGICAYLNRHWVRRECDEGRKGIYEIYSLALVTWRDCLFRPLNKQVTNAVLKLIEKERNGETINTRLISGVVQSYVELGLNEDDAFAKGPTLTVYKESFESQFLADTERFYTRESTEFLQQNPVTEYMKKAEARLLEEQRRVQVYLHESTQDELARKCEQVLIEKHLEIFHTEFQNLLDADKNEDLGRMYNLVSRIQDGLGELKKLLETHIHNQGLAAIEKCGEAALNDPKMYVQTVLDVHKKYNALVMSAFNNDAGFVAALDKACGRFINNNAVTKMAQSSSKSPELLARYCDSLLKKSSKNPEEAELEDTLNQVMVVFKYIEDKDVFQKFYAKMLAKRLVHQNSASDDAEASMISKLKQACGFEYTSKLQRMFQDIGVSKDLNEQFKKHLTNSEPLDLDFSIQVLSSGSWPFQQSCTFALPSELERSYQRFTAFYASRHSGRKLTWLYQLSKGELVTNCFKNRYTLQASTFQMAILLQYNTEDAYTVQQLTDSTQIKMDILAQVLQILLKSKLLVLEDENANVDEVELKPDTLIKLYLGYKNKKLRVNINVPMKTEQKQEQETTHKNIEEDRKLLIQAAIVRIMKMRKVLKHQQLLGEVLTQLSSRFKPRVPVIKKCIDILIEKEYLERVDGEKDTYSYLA
T1 sequence (P63208 whole entry): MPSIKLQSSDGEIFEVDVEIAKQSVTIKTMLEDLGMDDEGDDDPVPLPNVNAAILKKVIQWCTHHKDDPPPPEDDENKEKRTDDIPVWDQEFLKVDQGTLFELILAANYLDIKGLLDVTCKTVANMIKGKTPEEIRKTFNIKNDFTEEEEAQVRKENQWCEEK
T1 sequence (P62877 whole entry): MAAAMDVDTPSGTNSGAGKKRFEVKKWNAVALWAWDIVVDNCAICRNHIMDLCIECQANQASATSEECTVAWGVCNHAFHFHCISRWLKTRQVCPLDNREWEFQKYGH

SMILES	IC50 [µM]
CC1=NN(c2ccccc2)C(=O)/C1=C\c1ccc(OCC(=O)N(C)C)cc1 [Compound 206]	< 40
CC1=NN(c2cccc(C(=O)O)c2)C(=O)/C1=C\c1ccc(N2CCN(C(=O)c3ccoc3)CC2)cc1 [Compound 444]	< 10
CC1=NN(c2ccc(S(N)(=O)=O)cc2)C(=O)/C1=C\c1ccc2occc2c1 [Compound 144]	10 to 20
COC(=O)N1CCN(c2ccc(C=C3C(=O)N(c4ccc(C(=O)O)cc4)N=C3c3ccccn3)cc2)CC1 [Compound 335]	10 to 20
COCC1=NN(c2ccccc2)C(=O)/C1=C\c1ccc(N2CCN(C(=O)OC)CC2)cc1 [Compound 5]	< 40
CC1=NN(c2cccc(C(=O)O)c2)C(=O)/C1=C\c1ccc(N2CCC(C(=O)O)CC2)cc1 [Compound 424]	< 10
CC1=NN(c2cccc(S(N)(=O)=O)c2)C(=O)/C1=C\c1cccc2cc[nH]c12 [Compound 140]	< 10
CC1=NN(c2ccc(C(=O)O)cc2)C(=O)/C1=C\c1cccc2nccnc12 [Compound 331]	10 to 20
COc1ccc(C2=NN(c3ccc(C(=O)O)cc3)C(=O)C2=Cc2ccc(-n3cccn3)cc2)cc1OC [Compound 342]	< 40
O=C(O)c1ccc(N2N=C(Cc3ccccc3)/C(=C/c3ccc(-n4cccn4)cc3)C2=O)cc1 [Compound 275]	10 to 20
CC1=NN(c2ccc(C(=O)O)cc2)C(=O)C1=Cc1ccc(N2CCNCC2)cc1 [Compound 451]	10 to 20
O=C1/C(=C\c2cccc3nccnc23)C(C2CC2)=NN1c1ccccc1 [Compound 72]	< 40
CC1=NN(c2ccc(C(=O)NCC(C)O)cc2)C(=O)C1=Cc1ccc2c(c1)OCCO2 (stereo not drawn) [Compound 398]	< 40
CC1=NN(c2ccc(S(N)(=O)=O)cc2)C(=O)C1=Cc1c[nH]c2ccc(Cl)cc12 [Compound 146]	< 10
CC1=NN(c2cccc(C(=O)O)c2)C(=O)/C1=C\c1ccc(N2CCCC2CO)cc1 (stereo not drawn) [Compound 422]	10 to 20
O=C(O)c1ccc(N2N=C(c3ccncc3)/C(=C/c3ccc(-c4ccccc4F)o3)C2=O)cc1 [Compound 341]	10 to 20
O=C(O)c1ccc(N2N=C(Cc3ccccc3)/C(=C/c3ccc4ccccc4c3)C2=O)cc1 [Compound 264]	10 to 20
CCCNC(=O)COc1ccc(/C=C2\C(=O)N(c3ccc(C(=O)O)cc3)N=C2C)cc1 [Compound 534]	10 to 20
CC1=NN(c2cccc(C(=O)O)c2)C(=O)/C1=C\c1ccc2c(c1)OCCO2 [Compound 402]	10 to 20

SMILES	IC50 [µM]
CC1=NN(c2ccc(S(N)(=O)=O)cc2)C(=O)/C1=C\c1ccc(N2CCN(c3ccc(F)cc3)CC2)cc1 [Compound 176]	< 10
COc1cc(/C=C2\C(=O)N(c3cccc(S(N)(=O)=O)c3)N=C2C)ccc1OCn1nnc2ccccc21 [Compound 157]	10 to 20
O=C(O)c1ccc(N2N=C(c3ccoc3)/C(=C/c3ccc4c(c3)OCO4)C2=O)cc1 [Compound 476]	< 10
CC1=NN(c2ccc(C(=O)NCC(C)O)cc2)C(=O)C1=Cc1ccc2c(c1)OCCO2 (stereo not drawn) [Compound 400]	< 40
COc1cc(/C=C2\C(=O)N(c3ccc(C(=O)O)cc3)N=C2c2ccccn2)ccc1OCc1ccccc1 [Compound 289]	10 to 20
COc1cc(/C=C2\C(=O)N(c3ccccc3)N=C2C2CC2)ccc1OCc1ccccc1 [Compound 71]	< 10
O=C(O)c1ccc(N2N=C(c3ccoc3)/C(=C/c3ccc(N4CCC(CO)CC4)cc3)C2=O)cc1 [Compound 438]	< 10
CCCCC1=NN(c2ccccc2)C(=O)/C1=C\c1ccc(-n2cncn2)cc1 [Compound 59]	10 to 20
COc1cc(/C=C2\C(=O)N(c3ccc(C(=O)O)cc3)N=C2c2ccncc2)ccc1O [Compound 286]	10 to 20
CC1=NN(c2ccc(C(=O)O)cc2)C(=O)C1=Cc1ccc(N2CCC(N3CCCC3)CC2)cc1 [Compound 450]	< 40
CC1=NN(c2ccc(C(=O)N3CCC(CO)CC3)cc2)C(=O)/C1=C\c1ccc2[nH]ccc2c1 [Compound 361]	< 10
O=C1/C(=C\c2ccc(CO)o2)C(C2CC2)=NN1c1ccccc1 [Compound 75]	10 to 20
CC1=NN(c2ccc(C(=O)NCc3ccc4c(c3)OCO4)cc2)C(=O)/C1=C\c1ccc2c(c1)OCCO2 [Compound 397]	10 to 20
CC1=NN(c2cccc(S(N)(=O)=O)c2)C(=O)C1=Cc1cc2ccccc2n1C [Compound 141]	10 to 20
O=C1/C(=C\c2ccc(N3CCCC3)cc2)C(c2ccncc2)=NN1c1ccccc1 [Compound 45]	< 40
COc1ccc(C2=NN(c3ccc(C(=O)O)cc3)C(=O)C2=Cc2ccc(N3CCN(C)CC3)cc2)cc1OC [Compound 285]	10 to 20
COc1ncccc1/C=C1\C(=O)N(c2cccc(C(=O)O)c2)N=C1C [Compound 506]	< 40
CC1=NN(c2cccc(C(=O)O)c2)C(=O)/C1=C\c1ccc2[nH]ccc2c1 [Compound 364]	< 10
CC1=NN(c2cccc(S(N)(=O)=O)c2)C(=O)/C1=C\c1ccc(-n2cccn2)cc1 [Compound 145]	10 to 20

SMILES	IC50 [µM]
COc1ccc(C2=NN(c3ccccc3)C(=O)/C2=C\c2ccc(CO)o2)cc1 [Compound 90]	< 40
CC1=NN(c2ccc(C(=O)N3CCOCC3)cc2)C(=O)/C1=C\c1ccc2c(c1)OCCO2 [Compound 386]	10 to 20
COc1cc(/C=C2/C(=O)N(c3cccc(N)c3)N=C2C)ccc1O [Compound 198]	< 40
COc1cc(/C=C2\C(=O)N(c3cccc(C(=O)O)c3)N=C2C)ccc1OCC1CC1 [Compound 393]	10 to 20
O=C(O)c1cccc(N2N=C(c3ccoc3)/C(=C/c3ccc(CO)o3)C2=O)c1 [Compound 488]	10 to 20
COCC1=NN(c2ccccc2)C(=O)/C1=C\c1ccc(-n2cccn2)cc1 [Compound 10]	< 40
COc1cc(/C=C2\C(=O)N(c3ccc(C(=O)O)cc3)N=C2C)ccc1OCC1CCCCC1 [Compound 406]	10 to 20
CN1CCN(c2ccc(/C=C3\C(=O)N(c4ccccc4)N=C3C3CC3)cc2)CC1 [Compound 78]	10 to 20
COc1cc(/C=C2\C(=O)N(c3ccc(C(=O)O)cc3)N=C2c2cccnc2)ccc1O [Compound 337]	10 to 20
CC1=NN(c2ccc(C(=O)N3CCOCC3)cc2)C(=O)/C1=C\c1ccc2[nH]ccc2c1 [Compound 357]	< 10
COc1ccc(C2=NN(c3ccccc3)C(=O)C2=Cc2ccc3c(c2)OCCO3)cc1 [Compound 93]	< 40
O=C(O)c1ccc(N2N=C(c3ccccn3)/C(=C/c3ccc4c(c3)OCCO4)C2=O)cc1 [Compound 292]	10 to 20
CCCCC1=NN(c2ccccc2)C(=O)/C1=C\c1ccc(O)c(OC)c1 [Compound 50]	10 to 20
COc1cc(/C=C2\C(=O)N(c3ccc(S(N)(=O)=O)cc3)N=C2C)ccc1OCC1CC1 [Compound 159]	10 to 20
CC1=NN(c2cccc(C(=O)O)c2)C(=O)/C1=C\c1ccsc1 [Compound 515]	< 40
CC1=NN(c2cccc(C(=O)N3CCC(CO)CC3)c2)C(=O)/C1=C\c1ccc2c(c1)OCCO2 [Compound 383]	< 40
CC1=NN(c2cccc(C(=O)O)c2)C(=O)/C1=C\c1ccc2c(ccn2C)c1 [Compound 493]	< 10
O=C1/C(=C\c2ccc3c(c2)OCCO3)C(c2cccnc2)=NN1c1ccccc1 [Compound 66]	< 40
CC1=NN(c2cccc(C(=O)O)c2)C(=O)/C1=C\c1cccc2[nH]ccc12 [Compound 355]	< 10
